From patent publication US20200039939A1, “QUINOLINE AMINES USEFUL AS CYTOPROTECTIVE AGENTS” (priority 2015, published 2020) come the findings set out here.

For one test, the system named is CSM14.1 neuronal cells. Briefly: Cell survival assay (thapsigargin-treated CSM14.1 neuronal cells, CELLTITER-GLO). The class given is cell-based. As to conditions: 2 hrs compound pre-incubation, about 15 μM thapsigargin, overnight, luminescence. The protocol:
CSM14.1 neuronal cells were maintained in Complete Medium at 32° C.; wherein the Complete Medium contained Dulbecco's modified eagle medium (DMEM) with 10% fetal bovine serum (FSB), 1% L-glutamine, 100 IU/mL penicillin, and 100 μg/mL streptomycin. The cells were recovered from cultures by trypsinization and then seeded in 384 well plates (Greiner #781098) at a concentration of 1,000 cells/well in 20 μL of DMEM Assay Medium, wherein the DMEM Assay Medium contained 2% FBS, 100 IU/mL penicillin, and 100 μg/mL streptomycin. Seeding was performed using a MultiDrop Combi reagent broadcaster. The plates were incubated overnight at 32° C. A test compound was prepared by 2-fold serial dilution in 100% DMSO using a BIOMEK® 2000 liquid handler (Beckman Coulter). A dose-response curve containing 10 concentrations of the test compound was obtained. Using a BIOMEK® FX liquid handler (Beckman Coulter), 2.5 μL of the test compound was transferred from the 100% DMSO serial dilution plate to an intermediate plate containing 47.5 μL of DMEM Assay Medium containing 2% FBS, 100 IU/mL penicillin, and 100 μg/mL streptomycin and mixed. To reduce or eliminate the interference from the compound's precipitation, 6 μL of the diluted compound was immediately transferred to the assay plate to achieve a high compound concentration of 100 µM in 99% DMEM Assay Medium and 1% DMSO. After the assay plates were incubated for 2 hrs, 4 μL of 112.5 μM thapsigargin (TG) (DMSO stock diluted into Assay TC Medium) was dispensed into each testing well with a MultiDrop Combi reagent broadcaster for a final concentration of about 15 μM TG. The tissue culture media (4 μL) containing vehicle only was transferred manually to each control cell using a 16 channel electronic pipette. After the plates were incubated overnight (about 16 to 24 hrs), CELLTITER-GLO® (Promega) (16 μL) was added to all wells and luminescence was measured. High luminescence indicates cell survival. The biological results are summarized in Table 1 where A represents a cell viability EC50 less than 10 μM and B represents a value greater than 10 μM and less than 20 μM.
In general terms: In ATP-based viability assays light output follows the ATP content of the culture.

Test [1] relates to Human embryonic kidney (HEK293) cells / mouse neuroblastoma (N2a) cells. Nature of the test: Cell rescue assay: protection against thapsigargin (TG)-induced cell-death (ALAMARBLUE). The test is classed as cell-based. As to conditions: compound 20 μM, 2 hrs before thapsigargin (15 μM HEK293, 1 μM N2a), 24 hrs, viability as % RFU of control, read-out: Cell Survival %. As to the method: Protection against Thapsigargin (TG)-induced Cell-death. Human embryonic kidney (HEK293) cells were grown in Dulbecco's Modified Eagle's Medium (DMEM) with 10% FBS and 1% antibiotic antimycotic solution (ABAM). Mouse neuroblastoma (N2a) cells were grown in 1:1 DMEM:OPTI-MEM® with 5% FBS and 1% ABAM. All cells were grown in 10% CO2 in a humidified environment of the incubator. Cells grown in 96-well plates were exposed to a test compound (20 μM) for 2 hrs before addition of thapsigargin (15 μM for HEK293 cells and 1 μM for N2a cells) to induce ER stress. After incubation in cell-culture incubator for 24 hrs, ALAMARBLUE® regent (10% v/v) was added to the wells. Fluorescence reading was taken 2 hrs after the addition of the ALAMARBLUE® regent. Cell-viability was calculated as a percentage of relative fluorescence unit (RFU) compared to control. […] The biological results are summarized in Table 2, where each compound was tested at 20 μM and where A represents a viability greater than 50%, B represents a viability greater than 10% and less than 50%, C represents a value below 10%.
For orientation: Alamar Blue is a resazurin reagent that responds to reducing activity.

A further test deals with Human SH-SY5Y cells. Briefly: Cell rescue assay: protection against amyloid (AB1-42)-induced cell toxicity. The settings on record: 96 h, 7.5 uM compound (final), AB1-42 at 10 uM, 4 days, OD 490 nm, read-out: Cell Survival % (cell rescue). The class given is cell-based. As to the method: Protection against 1-amyloid-induced cell toxicity. Chonpathompikunlert et al. Eu. J. Pharmacol. 2011, 650, 544-549. Human SH-SY5Y cells are suspended in media containing 2% FBS and 2× Gentamicin. Transfer 100 ul/well culture to 96-well plate (20,000 cells/well; passage #5) and incubate overnight. Prepare compound samples at 30 uM. Add 50 ul of the samples to the cells [[…]] and incubate 3 hours. Make stock of 40 uM AB1-42 peptide in assay media. Transfer 50 ul/well to cells/compounds in assay plate. The final assay volume is 200 ul/well, containing 2% FBS, 2× Gentamicin, 7.5 uM compound and AB1-42 at 10 uM. Incubate for 4 days then add 20 ul of Promega Substrate Cell Titer 96 Aqueous One Solution Reagent to each well. Incubate 37° C. and read OD at 490 nm. The results are summarized in Table 3, where A represents a value greater than 40% cell rescue, B represents a value greater than 10% and less than or equal to 40% cell rescue, and C represents a value greater than 1% and less than or equal to 10% cell rescue.

The target in another test is T1, SERCA (Homo sapiens, UniProt P16615).
T1 construct: microsomal preparations from HEK 293 cells; endogenous in cells; host or cells: HEK 293 cells (microsomal preparation)
T1 sequence (P16615 whole entry): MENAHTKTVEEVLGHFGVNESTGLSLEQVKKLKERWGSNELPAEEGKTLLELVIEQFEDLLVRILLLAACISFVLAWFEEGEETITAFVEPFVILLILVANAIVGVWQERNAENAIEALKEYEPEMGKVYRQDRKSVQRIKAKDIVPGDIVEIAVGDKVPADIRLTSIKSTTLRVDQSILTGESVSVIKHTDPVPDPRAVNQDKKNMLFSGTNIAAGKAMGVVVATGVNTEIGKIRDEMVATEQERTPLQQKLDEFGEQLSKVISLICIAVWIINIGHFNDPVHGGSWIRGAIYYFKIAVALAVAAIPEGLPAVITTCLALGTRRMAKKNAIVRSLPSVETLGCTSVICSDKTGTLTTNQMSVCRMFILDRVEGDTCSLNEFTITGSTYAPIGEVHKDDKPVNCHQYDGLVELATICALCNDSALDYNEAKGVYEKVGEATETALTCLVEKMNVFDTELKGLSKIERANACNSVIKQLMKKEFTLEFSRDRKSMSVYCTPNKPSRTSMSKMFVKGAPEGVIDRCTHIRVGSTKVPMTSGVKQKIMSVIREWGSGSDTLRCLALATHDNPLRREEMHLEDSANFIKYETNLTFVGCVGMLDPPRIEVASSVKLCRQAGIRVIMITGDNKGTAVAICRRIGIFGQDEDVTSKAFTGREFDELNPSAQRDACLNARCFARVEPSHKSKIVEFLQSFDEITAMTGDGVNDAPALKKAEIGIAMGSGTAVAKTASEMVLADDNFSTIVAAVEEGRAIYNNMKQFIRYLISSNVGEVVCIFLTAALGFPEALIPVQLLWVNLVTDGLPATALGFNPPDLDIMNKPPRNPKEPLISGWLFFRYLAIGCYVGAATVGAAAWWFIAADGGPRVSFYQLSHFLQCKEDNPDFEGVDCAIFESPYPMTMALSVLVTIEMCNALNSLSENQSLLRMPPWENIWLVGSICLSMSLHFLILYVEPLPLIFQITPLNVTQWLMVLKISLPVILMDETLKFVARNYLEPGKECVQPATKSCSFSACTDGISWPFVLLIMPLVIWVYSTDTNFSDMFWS
Briefly: Ca-ATPase assay (NADH-linked, enzyme-coupled ATPase assay). As to conditions: microsomal preparations from HEK 293 cells, Vmax from Hill fit of ATPase calcium-dependence, relative to controls. The class given is biochemical. The protocol: A Ca-ATPase assay was performed using microsomal preparations from HEK 293 cells at a series of calcium concentrations corresponding to the physiological range, relative to controls. The ATP hydrolysis rate was measured over a range of calcium concentrations in the presence of test compounds using an NADH-linked, enzyme-coupled ATPase assay adapted for 96-well microplates, with Vmax determined by fitting the ATPase calcium-dependence to the Hill function. Each well contained 2 μg or 7 μg of SR vesicles (optimized for skeletal or cardiac SR, respectively), 50 mM MOPS (pH 7.0), 100 mM KCl, 5 mM MgCl2, 1 mM EGTA, 0.2 mM NADH, 1 mM phosphoenol pyruvate, 5 IU pyruvate kinase, 5 IU lactate dehydrogenase, and 3.5 μg/mL A23187 (a calcium ionophore). CaCl2 was added to set free [Ca^2+] to the specific values. The assay was started upon addition of ATP at a final concentration of 5 mM, and read in a SpectraMax Plus microplate spectrophotometer. The results are summarized in Table 4, where A represents an increase in SERCA Vmax greater than or equal to 50% and B represents a value greater than 10% and less than 50%.

For the next test, the system named is Ob/ob mice. Briefly: Effect of a SERCA agonist on the level of blood glucose. The class given is in vivo. The settings on record: Mus musculus, ip, 96 h, 50 mg/kg i.p. once a day for 5 days, fasting glucose at baseline and 4 days after administration, read-out: Glucose level reduction. As to the method:
Ob/ob mice (10 weeks old, n=7) were intraperitoneally (i.p.) injected with 100 μL of a solution containing 0 (vehicle) or 50 mg/kg of a test compound once a day for a total of 5 days. Fasting glucose was measured at baseline and 4 days after the administration of the test compound. Glucose levels were measured in blood samples drawn from the tail vein using a handheld glucose sensor. Compound effects on blood glucose are shown in Table 5 where A represents a 10-20% reduction in blood glucose, B represents a 21-30% reduction in blood glucose, and C represents a greater than 30% reduction in blood glucose levels.

pEC50: −log10 of the molar value.

The term pEC50 denotes the negative decadic logarithm of the EC50, by convention in mol/L. Low readings indicate a high EC50, high ones a low EC50.

`COc1c(C)cccc1CNc1cccc2ccc(C)nc12` [C5, N-(2-Methoxy-3-methyl)-2-methylquinolin-8-amine] showed a pEC50 in the test with CSM14.1 neuronal cells of 4.70 to 5.00. The viability at 20 µM in test [1] fell in the range of 10 to 50%. The viability at 7.5 µM in the test on Human SH-SY5Y cells is 1 to 10%. In addition, on SERCA, the “SERCA Vmax Increase” value was “A (A represents an increase in SERCA Vmax greater than or equal to 50%)”. Also, the inhibition in vivo at 50 mg/kg with Ob/ob mice is 21 to 30%.
Turning to `Cc1ccc2cccc(NCc3cc(Br)cs3)c2n1` [C2, N-((4-Bromothiophen-2-yl)methyl)-2-methylquinolin-8-amine], in the test on CSM14.1 neuronal cells, the pEC50 was over 5.00. In addition, the viability at 20 µM in test [1] was 10 to 50%. The viability at 7.5 µM in the test on Human SH-SY5Y cells was in the range of 10 to 40%. Besides, the “SERCA Vmax Increase” value on SERCA was “B (B represents a value greater than 10% and less than 50%)”. Also, the inhibition in vivo at 50 mg/kg in the test on Ob/ob mice was in the range of 21 to 30%.
As to `Cc1ccc2cccc(NCc3ccc(C)o3)c2n1` [C9, N-((5-Methylfuran-2-yl)methyl)-2-methylquinolin-8-amine], the pEC50 in the test on CSM14.1 neuronal cells was 4.70 to 5.00. Moreover, in test [1], the viability at 20 µM is under 10%. Moreover, the viability at 7.5 µM with Human SH-SY5Y cells was in the range of 1 to 10%. Besides, the “SERCA Vmax Increase” value at SERCA was “B (B represents a value greater than 10% and less than 50%)”. In the test with Ob/ob mice, the inhibition in vivo at 50 mg/kg lay within 21 to 30%.
For the compound `Cc1ccc2cccc(NCc3cc4ccccc4s3)c2n1` [C10, N-(Benzo[b]thiophen-2-ylmethyl)-2-methylquinolin-8-amine], in the test on CSM14.1 neuronal cells, the pEC50 was 4.70 to 5.00. For the same compound, the viability at 20 µM in test [1] lay in the range of 10 to 50%. For the same compound, the viability at 7.5 µM with Human SH-SY5Y cells is 10 to 40%. The “SERCA Vmax Increase” value at SERCA was “B (B represents a value greater than 10% and less than 50%)”. Further, the inhibition in vivo at 50 mg/kg in the test with Ob/ob mice lay within 21 to 30%.
For `Cc1ccc2cccc(NCc3ccc(Br)s3)c2n1` [C3, N-((5-Bromothiophen-2-yl)methyl)-2-methylquinolin-8-amine], the pEC50 in the test on CSM14.1 neuronal cells is over 5.00. In addition, the viability at 20 µM in test [1] was over 50%. The viability at 7.5 µM with Human SH-SY5Y cells is over 40%. The “SERCA Vmax Increase” value at SERCA was “B (B represents a value greater than 10% and less than 50%)”. For the same compound, the inhibition in vivo at 50 mg/kg with Ob/ob mice is 21 to 30%.
`Cc1ccc2cccc(NCc3ccc(OC(C)C)cc3)c2n1` [C1, N-(4-Isopropoxybenzyl)-2-methylquinolin-8-amine] had a pEC50 with CSM14.1 neuronal cells of over 5.00. The viability at 20 µM in test [1] was over 50%. Moreover, the viability at 7.5 µM in the test with Human SH-SY5Y cells was over 40%. For the same compound, the “SERCA Vmax Increase” value on SERCA was “B (B represents a value greater than 10% and less than 50%)”. Moreover, in the test with Ob/ob mice, the inhibition in vivo at 50 mg/kg is over 30%.
On to `Cc1ccc2cccc(NCc3ccc(C#N)cc3)c2n1` [C7, N-(4-Cyanobenzyl)-2-methylquinolin-8-amine], for which the pEC50 in the test on CSM14.1 neuronal cells is 4.70 to 5.00. Besides, the viability at 20 µM in test [1] was under 10%. In addition, the viability at 7.5 µM in the test on Human SH-SY5Y cells was in the range of 10 to 40%. The “SERCA Vmax Increase” value on SERCA was “B (B represents a value greater than 10% and less than 50%)”. In the test with Ob/ob mice, the inhibition in vivo at 50 mg/kg lay within 10 to 20%.
The compound `Cc1ccc2cccc(NCc3ccc(C(F)(F)F)cc3)c2n1` [C6, N-(4-Trifluoromethylbenzyl)-2-methylquinolin-8-amine] gave a pEC50 with CSM14.1 neuronal cells of over 5.00. Also, the viability at 20 µM in test [1] is over 50%. Further, the viability at 7.5 µM with Human SH-SY5Y cells was over 40%. On SERCA, the “SERCA Vmax Increase” value was “B (B represents a value greater than 10% and less than 50%)”. Further, the inhibition in vivo at 50 mg/kg with Ob/ob mice lay in the range of 10 to 20%.
For the compound `Cc1ccc2cccc(NCc3ccc(C)s3)c2n1` [C8, N-((5-Methylthiophen-2-yl)methyl)-2-methylquinolin-8-amine], the pEC50 in the test with CSM14.1 neuronal cells was over 5.00. The viability at 20 µM in test [1] was 10 to 50%. Besides, in the test on Human SH-SY5Y cells, the viability at 7.5 µM is over 40%. Also, the “SERCA Vmax Increase” value on SERCA was “B (B represents a value greater than 10% and less than 50%)”. The inhibition in vivo at 50 mg/kg with Ob/ob mice was over 30%.
In the test on CSM14.1 neuronal cells, `Cc1ccc2cccc(NCc3ccc(Cl)cc3)c2n1` [C4, N-(4-Chlorobenzyl)-2-methylquinolin-8-amine] had a pEC50 of over 5.00. Further, the viability at 20 µM in test [1] was over 50%. For the same compound, the viability at 7.5 µM with Human SH-SY5Y cells is over 40%. Also, on SERCA, the “SERCA Vmax Increase” value is “A (A represents an increase in SERCA Vmax greater than or equal to 50%)”. Also, the inhibition in vivo at 50 mg/kg in the test on Ob/ob mice is 10 to 20%.
